The NIST ThermoML archive (doi:10.1016/j.fluid.2015.03.048)
± gives the expanded uncertainty stated by the source.

Experiments:
[1] = Liquid; for viscosity: 100 kPa, Capillary tube (Ostwald / Ubbelohde) method; for mass density: 101.33 kPa, Pycnometric method
[2] = xn = mol fraction of the nth substance listed; details: 303.15 K, 100 kPa, Liquid; for viscosity: Capillary tube (Ostwald / Ubbelohde) method; for excess molar volume: Direct dilatometry; for speed of sound: Frequency=3 MHz, Sing-around technique in a fixed-path interferometer; for mass density: Pycnometric method

Cc1ccccc1[N+](=O)[O-] [2-nitrotoluene]
[1], 303.15 K
Details | mass density [kg/m3] | viscosity [mPa·s]
– | 1153.24 ± 12 | 1.908 ± 0.017

Cc1ccc(Cl)cc1 [4-chlorotoluene]
[1]
Details | mass density [kg/m3] | viscosity [mPa·s]
298.15 K | 1065.14 ± 11 | –
303.15 K | – | 0.902 ± 0.012

CC(=O)N(C)C [N,N-dimethylethanamide]
[1], 303.15 K
Details | mass density [kg/m3] | viscosity [mPa·s]
– | 941.35 ± 9.4 | 0.865 ± 0.012

Cc1ccccc1Cl [2-chlorotoluene]
[1], 303.15 K
Details | mass density [kg/m3] | viscosity [mPa·s]
– | 1072.82 ± 11 | 0.884 ± 0.012

Clc1ccccc1Cl [1,2-dichlorobenzene]
[1], 303.15 K
Details | mass density [kg/m3] | viscosity [mPa·s]
– | 1299.2 ± 13 | 1.301 ± 0.014

Clc1cccc(Cl)c1 [1,3-dichlorobenzene]
[1], 303.15 K
Details | mass density [kg/m3] | viscosity [mPa·s]
– | 1277.16 ± 13 | 1.023 ± 0.013

Clc1ccc(Cl)c(Cl)c1 [1,2,4-trichlorobenzene]
[1], 303.15 K
Details | mass density [kg/m3] | viscosity [mPa·s]
– | 1442.12 ± 14 | 1.611 ± 0.015

Cc1cccc(Cl)c1 [3-chlorotoluene]
[1]
Details | mass density [kg/m3] | viscosity [mPa·s]
293.15 K | 1072.15 ± 11 | –
303.15 K | – | 0.782 ± 0.012

Cc1cccc([N+](=O)[O-])c1 [3-nitrotoluene]
[1], 303.15 K
Details | mass density [kg/m3] | viscosity [mPa·s]
– | 1147.67 ± 12 | 1.775 ± 0.016

Clc1ccc(Cl)c(Cl)c1 [1,2,4-trichlorobenzene] + CC(=O)N(C)C
[2]
Details | excess molar volume [m3/mol] | mass density [kg/m3] | speed of sound [m/s] | viscosity [mPa·s]
x2 = 0.0697 | – | 1407.11 ± 14 | 1289 ± 3 | –
x2 = 0.0921 | 2.1e-08 ± 6e-09 | – | – | 1.608 ± 0.019
x2 = 0.1026 | – | 1390.55 ± 14 | 1299 ± 3 | –
x2 = 0.1341 | 3.1e-08 ± 6e-09 | – | – | 1.578 ± 0.019
x2 = 0.1407 | – | 1371.4 ± 14 | 1308 ± 3 | –
x2 = 0.1758 | – | 1353.78 ± 14 | 1316 ± 3 | –
x2 = 0.1815 | 4.3e-08 ± 6e-09 | – | – | 1.523 ± 0.018
x2 = 0.2103 | – | 1336.46 ± 13 | 1325 ± 3 | –
x2 = 0.2241 | 5.2e-08 ± 6e-09 | – | – | 1.474 ± 0.018
x2 = 0.2601 | – | 1311.41 ± 13 | 1336 ± 3 | –
x2 = 0.265 | 6.1e-08 ± 6e-09 | – | – | 1.445 ± 0.018
x2 = 0.3225 | 7.4e-08 ± 6e-09 | – | – | 1.403 ± 0.017
x2 = 0.3592 | – | 1261.63 ± 13 | 1354 ± 3 | –
x2 = 0.4015 | – | 1240.42 ± 12 | 1365 ± 3 | –
x2 = 0.4257 | – | 1228.27 ± 12 | 1368 ± 3 | –
x2 = 0.4315 | 9.5e-08 ± 6e-09 | – | – | 1.383 ± 0.017
x2 = 0.476 | 9.9e-08 ± 6e-09 | – | – | 1.353 ± 0.017
x2 = 0.4786 | – | 1201.84 ± 12 | 1378 ± 3 | –
x2 = 0.501 | 1e-07 ± 6e-09 | – | – | 1.284 ± 0.016
x2 = 0.5539 | – | 1164.24 ± 12 | 1391 ± 3 | –
x2 = 0.5542 | 9.7e-08 ± 6e-09 | – | – | 1.292 ± 0.016
x2 = 0.6271 | 8.8e-08 ± 6e-09 | – | – | 1.205 ± 0.015
x2 = 0.6383 | – | 1122.13 ± 11 | 1405 ± 3 | –
x2 = 0.705 | 7.3e-08 ± 6e-09 | – | – | 1.197 ± 0.015
x2 = 0.7344 | – | 1074.16 ± 11 | 1419 ± 3 | –
x2 = 0.7519 | – | 1065.39 ± 11 | 1420 ± 3 | –
x2 = 0.7892 | 5.5e-08 ± 6e-09 | – | – | 1.152 ± 0.015
x2 = 0.8041 | 5.2e-08 ± 6e-09 | – | – | 1.096 ± 0.014
x2 = 0.9052 | – | 988.77 ± 9.9 | 1440 ± 3 | –
x2 = 0.9282 | 2.2e-08 ± 6e-09 | – | – | 1.088 ± 0.014
